From ChEMBL document CHEMBL1201862, “PubChem BioAssay data set” (2004)
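Step 1: Grow cells in 96-well plates. Step 2: Expose to compound for 48 hours at 5 concentrations. Step 3: Interpolate endpoints linearly; if unreached, use highest concentration. At the GI50, growth is halved.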 The source made the active and inactive calls. Rule as the data show it: active = GI50 up to about 1.1 µM and inactive = higher.

Legend:
Assay in all cases: NCI-60 cell line screen, 48 h
[1] = system: HCT-15
[2] = system: DMS-114
[3] = system: HCC 2998
[4] = system: DMS-273
[5] = system: K562
[6] = system: UACC-257
[7] = system: SK-OV-3
[8] = system: 786-0
[9] = system: A498
[10] = system: SN12C
[11] = system: OVCAR-5
[12] = system: HCT-116
[13] = system: SNB-19
[14] = system: LOX IMVI
[15] = system: NCI-H23
[16] = system: HOP-92
[17] = system: KM-20L2
[18] = system: RXF 393
[19] = system: NCI/ADR-RES
[20] = system: BT-549

| Compound | GI50 [1] [µM] | GI50 [2] | GI50 [3] | GI50 [4] | GI50 [5] | GI50 [6] | GI50 [7] | GI50 [8] | GI50 [9] | GI50 [10] | GI50 [11] | GI50 [12] | GI50 [13] | GI50 [14] | GI50 [15] | GI50 [16] | GI50 [17] | GI50 [18] | GI50 [19] | GI50 [20] |
| --- | --- | --- | --- | --- | --- | --- | --- | --- | --- | --- | --- | --- | --- | --- | --- | --- | --- | --- | --- | --- |
| CC(=O)O[C@@H]1CC[C@@]2(C)C(=O)C34C[C@@]5(C)C([C@@H](C)CCCC(C)C)CCC5(C)[C@](O)(O3)C(=O)[C@H]4C2C1(C)C (some centres undefined) | 13.5 | 17.4 µM (inactive) | 11.3 µM (inactive) | 13.4 µM (inactive) | 9.42 µM (inactive) | 17 µM (inactive) | 18.3 µM (inactive) | 12.9 µM (inactive) | 22.2 µM (inactive) | 13.2 µM (inactive) | 15.9 µM (inactive) | 14 µM (inactive) | 16.6 µM (inactive) | 15.6 µM (inactive) | 13.4 µM (inactive) | 19.1 µM (inactive) | 17.4 µM (inactive) |  |  |  |
| Cc1cc2c(=O)cc(-c3ccncc3)oc2c(C(=O)O)c1C | > 100 |  | > 100 µM (inactive) | > 100 µM (inactive) |  | > 100 µM (inactive) | > 100 µM (inactive) | > 100 µM (inactive) |  | > 100 µM (inactive) | > 100 µM (inactive) | > 100 µM (inactive) | > 100 µM (inactive) | > 100 µM (inactive) | > 100 µM (inactive) | > 100 µM (inactive) | > 100 µM (inactive) | > 100 µM (inactive) |  |  |
| CC(=O)N1C(=O)C(=O)c2cc(Cl)ccc21 | > 100 | > 100 µM (inactive) | > 100 µM (inactive) | > 100 µM (inactive) | > 100 µM (inactive) |  | > 100 µM (inactive) | > 100 µM (inactive) | > 100 µM (inactive) | > 100 µM (inactive) | > 100 µM (inactive) |  | > 100 µM (inactive) | > 100 µM (inactive) | > 100 µM (inactive) |  |  | > 100 µM (inactive) |  |  |
| C#C[C@]1(O)CCCC2=CC(=O)CC[C@@]21C | > 100 | > 100 µM (inactive) | > 100 µM (inactive) | > 100 µM (inactive) | > 100 µM (inactive) | > 100 µM (inactive) | > 100 µM (inactive) | > 100 µM (inactive) |  | > 100 µM (inactive) | > 100 µM (inactive) |  | > 100 µM (inactive) |  | > 100 µM (inactive) | > 100 µM (inactive) | > 100 µM (inactive) | > 100 µM (inactive) |  |  |
| Cn1cnc([N+](=O)[O-])c1Sc1nnnn1-c1ccccc1 |  | 15.5 µM (inactive) | 18.5 µM (inactive) | 15 µM (inactive) | 3.94 µM (inactive) | 13.7 µM (inactive) | 46.9 µM (inactive) | 16.7 µM (inactive) | 18.7 µM (inactive) | 15.7 µM (inactive) | 17.8 µM (inactive) | 11.3 µM (inactive) | 33.2 µM (inactive) | 5.65 µM (inactive) | 19.4 µM (inactive) | 2.72 µM (inactive) |  |  |  |  |
| C[Si]12OCCCN(CCO1)CCO2 |  | > 100 µM (inactive) | > 100 µM (inactive) | > 100 µM (inactive) | > 100 µM (inactive) | > 100 µM (inactive) | > 100 µM (inactive) | > 100 µM (inactive) | > 100 µM (inactive) | > 100 µM (inactive) | > 100 µM (inactive) | > 100 µM (inactive) | > 100 µM (inactive) |  | > 100 µM (inactive) | > 100 µM (inactive) |  | > 100 µM (inactive) |  |  |
| CN1CCN(CCn2c3c4ccccc4ccc3c3oc(=O)c4ccccc4c32)CC1 | 2.72 | 1.95 µM (inactive) | 1.87 µM (inactive) |  | 1.44 µM (inactive) | 1.56 µM (inactive) | 12.7 µM (inactive) | 1.73 µM (inactive) | 5.09 µM (inactive) | 1.51 µM (inactive) | 5.74 µM (inactive) | 1.88 µM (inactive) | 4.51 µM (inactive) |  | 5.83 µM (inactive) | 5.85 µM (inactive) | 2.58 µM (inactive) |  | 6.87 µM (inactive) |  |
| COc1ccc(/C=C/C(C(=O)O)C(=O)O)cc1 | 45.6 | > 100 µM (inactive) | > 100 µM (inactive) | > 100 µM (inactive) | 32.4 µM (inactive) | 97.9 µM (inactive) | > 100 µM (inactive) | > 100 µM (inactive) |  | 51.3 µM (inactive) | 78.5 µM (inactive) | > 100 µM (inactive) | 70.5 µM (inactive) | 16.1 µM (inactive) | > 100 µM (inactive) | 72.1 µM (inactive) | 91.6 µM (inactive) |  |  |  |
| Cc1cccc(C2=C/C(=C(\SS/C(C(=O)c3ccc(OCC(=O)O)c(Cl)c3Cl)=C3\C=C(c4cccc(C)c4)SS3)C(=O)c3ccc(OCC(=O)O)c(Cl)c3Cl)SS2)c1 | 12 | 5.42 µM (inactive) | 31 µM (inactive) | 31.3 µM (inactive) | 4.31 µM (inactive) | 34.4 µM (inactive) | 36.6 µM (inactive) | 20 µM (inactive) | 24.4 µM (inactive) | 14.8 µM (inactive) | 30.4 µM (inactive) | 10.2 µM (inactive) | 10.9 µM (inactive) | 4.69 µM (inactive) | 12.1 µM (inactive) | 5.45 µM (inactive) | 47.1 µM (inactive) |  |  |  |
| Cc1ccc(NC(=O)CC(=O)n2nc(-c3ccccc3)c(/N=N/c3ccc(Cl)cc3)c2-c2ccccc2)cc1 | 88.7 | 39.6 µM (inactive) | 84.5 µM (inactive) | 83.8 µM (inactive) | 13.5 µM (inactive) | 33.8 µM (inactive) | 27.5 µM (inactive) | 21.1 µM (inactive) | > 100 µM (inactive) | 31.6 µM (inactive) | > 100 µM (inactive) | 19.5 µM (inactive) | 42.6 µM (inactive) | 15.6 µM (inactive) | 58.1 µM (inactive) | 39.7 µM (inactive) | 49.9 µM (inactive) |  |  |  |
| Cc1ccc(S(=O)(=O)OC(C=O)C(O)C(O)COC(c2ccccc2)(c2ccccc2)c2ccccc2)cc1 (centres undefined) | 14.1 | 17.6 µM (inactive) | 12 µM (inactive) | 21.9 µM (inactive) | 16.9 µM (inactive) | 13.2 µM (inactive) | 15 µM (inactive) | 14.1 µM (inactive) | 18 µM (inactive) | 15.5 µM (inactive) | 20.1 µM (inactive) | 16.4 µM (inactive) | 14.8 µM (inactive) | 19.1 µM (inactive) |  |  | 14.1 µM (inactive) | 15.2 µM (inactive) |  |  |
| NC(CCSCCF)C(=O)O (centres undefined) | > 100 | > 100 µM (inactive) |  | > 100 µM (inactive) | > 100 µM (inactive) |  | > 100 µM (inactive) | > 100 µM (inactive) | > 100 µM (inactive) | > 100 µM (inactive) | > 100 µM (inactive) | > 100 µM (inactive) | > 100 µM (inactive) | > 100 µM (inactive) | > 100 µM (inactive) | > 100 µM (inactive) | > 100 µM (inactive) |  |  |  |
| Cc1c(C(=O)C/C(=N/NC(=O)C[n+]2ccccc2)C(=O)Nc2ccccc2)[n+]([O-])c2ccccc2[n+]1[O-] | > 100 | > 100 µM (inactive) | > 100 µM (inactive) | > 100 µM (inactive) | > 100 µM (inactive) | > 100 µM (inactive) | > 100 µM (inactive) | > 100 µM (inactive) | > 100 µM (inactive) | > 100 µM (inactive) | > 100 µM (inactive) | > 100 µM (inactive) | > 100 µM (inactive) | > 100 µM (inactive) | > 100 µM (inactive) |  | > 100 µM (inactive) | > 100 µM (inactive) |  |  |
| Cc1cccc(C)c1NC(=O)CCCC(=O)C(C#N)c1ccc(Cl)cc1 (centres undefined) | > 100 | > 100 µM (inactive) | > 100 µM (inactive) | > 100 µM (inactive) | > 100 µM (inactive) | > 100 µM (inactive) | > 100 µM (inactive) | > 100 µM (inactive) | > 100 µM (inactive) | > 100 µM (inactive) | > 100 µM (inactive) | > 100 µM (inactive) | > 100 µM (inactive) | > 100 µM (inactive) | > 100 µM (inactive) | > 100 µM (inactive) | > 100 µM (inactive) |  |  |  |
| Oc1cccc2c1NC1=C(CCC/C1=C\c1ccccc1)C2 | 43.4 | 67.8 µM (inactive) | 49.3 µM (inactive) | 66.7 µM (inactive) | 59.6 µM (inactive) | 57.9 µM (inactive) | > 100 µM (inactive) | > 100 µM (inactive) |  | > 10 µM (inactive) |  | 82.6 µM (inactive) | > 100 µM (inactive) | 73.3 µM (inactive) | 58.2 µM (inactive) |  | 52.6 µM (inactive) |  |  |  |
| CSCC(COC(C)=O)(CSC)c1ccncc1 | > 100 | > 100 µM (inactive) | > 100 µM (inactive) | > 100 µM (inactive) | > 100 µM (inactive) | > 100 µM (inactive) | > 100 µM (inactive) | > 100 µM (inactive) | > 100 µM (inactive) | > 100 µM (inactive) |  | > 100 µM (inactive) | > 100 µM (inactive) | > 100 µM (inactive) | > 100 µM (inactive) |  | > 100 µM (inactive) | > 100 µM (inactive) |  |  |
| CCSc1nnc(Sc2c3ccccc3nc3ccccc23)s1 | 3.37 |  | 11.8 µM (inactive) |  | 3.8 µM (inactive) | 7.98 µM (inactive) | > 78 µM (inactive) | 2.84 µM (inactive) | 23.8 µM (inactive) | 15.2 µM (inactive) | 20 µM (inactive) | 7.41 µM (inactive) | 44.2 µM (inactive) | 6.7 µM (inactive) | 20.2 µM (inactive) | 11.7 µM (inactive) |  | 17.2 µM (inactive) | 19.7 µM (inactive) | 17.6 µM (inactive) |
